The source of these data is patent US12201628B2, “Neuronal modulation” (priority 2013, dated 2025).

The subject of assay [1] is immune cell clusters (CD45+ cells). Description: CyTOF mass cytometry of blood and spleen with Citrus analysis. It is filed as in vivo, mice. The following applies: 24 h after CNO, VTA-activated vs control. On the procedure: Two weeks after completion of the behavioral testing, mice were injected intraperitoneally with CNO and anesthetized 24 hours thereafter. Spleens and blood samples were collected. Spleens were dissociated into single-cell suspensions in 2% fetal bovine serum (Biological Industries, IL) and mesh filtered to remove clumps and debris. Blood samples were collected into heparin-coated sterile test tubes. Both the blood and the spleen cell suspensions were lysed with red blood cell lysis buffer (BD Biosciences, NJ, US). Cells ([…]) from each tissue were stained, for 1 hour at room temperature, with a mixture of metal tagged antibodies recognizing CD45, CCR3, CD80, GR1, CD86, CD19, CD4, CD45R, CD152, CD138, CD8, NK1.1, CD27, CD206, CD25, CD14, CD11c, CD49b, CD34, CD69, CD123, TCRβ, CCR7, CD28, CD115, CD133, TLR4, CD117, CD79b, CD62L, CD44, CD45RA, CD1d, IAIE, CD5, and CD11b. All antibodies were conjugated using the MAXPAR reagent (Fluidigm Inc.), with Rhodium and Iridium intercalators used to identify live/dead cells. Cells were washed twice with PBS, fixed in 1.6% formaldehyde (Sigma-Aldrich, St. Louis, MO) for 1 hour, washed again in ultrapure H2O and subjected to CyTOF mass cytometry analysis on a CyTOF I machine, with cell events acquired at approximately 500 events per second. In addition, each sample was spiked with internal metal isotope bead standards, which then was used for sample normalization by CyTOF software (Fluidigm). Acquired data was then uploaded to a Cytobank web server (Cytobank Inc.) for data processing and gating out of dead cells and normalization beads. Data was transformed using an arc sin h (X/5) transformation.
Differences in cell subset abundance and functional marker expression between VTA activated and control mice, were identified using the Citrus algorithm, a clustering and differential detection algorithm especially suited for high dimensional cytometry data (2). Twenty FCS files of normalized, live cell/no beads samples (Five VTA activated mice spleens, five VTA activated mice blood samples, 5 control mice spleen and five control mice blood) were each randomly sampled for 40,000 single cell events each. Briefly, Citrus performs three steps to identify cell subsets and differences between groups: First, collected single cell events are pooled together and iteratively hierarchically clustered using a subset of the measured channels for clustering (See Table 1 for a list of 23 clustering markers), yielding overlapping clusters with the ultimate cluster being one encompassing all sampled events. Second, the pooled dataset is split back into its constituting samples and the relative abundance of cells in each cluster is computed, as well as the median values of each functional marker (see Table 1 for a list of functional markers). Only cell clusters whose total abundance in one or more of the measured samples was greater than 1% of the total measured sample was retained for downstream analysis, yielding a total of 151 clusters. Third, the Citrus implementation of the SAM algorithm was applied, to identify, separately, differences in cell subset abundances and medians between VTA activated and control mouse samples at a predetermined FDR of 5%. Beyond this, an additional criteria for calling differences was employed, by performing a Mann-Whitney non-parametric test of significance on each cluster found to be different between VTA activated and control and requiring that it meet a p-value <0.05 criteria. Manual inspection of Citrus output was used to identify the closest known gross-cell type, matching the 23 combination clustering marker panel. A similar procedure analysis procedure was performed for 6-OHDA samples versus control. […]

In assay [2] the test system is immune populations in the spleen. Description: CyTOF of spleen after VTA DA activation and LPS injection. The format is in vivo, mice. The following applies: spleen 24 h after VTA DA activation and LPS injection; Gq vs control. On the procedure:
FIGS. 3A-3E. Are graphs showing the effects of VTA DA neurons activation on a numbers of defined immune populations in the spleen as determined by CyTOF. FIG. 3A is an experimental timeline: spleens were collected from control and Gq mice 24 h after VTA DA activation and LPS injection (5 ug/kg). […] The individual ions were counted and then parsed into a flow cytometry file format. This file can be analyzed by traditional flow cytometry software or by SPADE, which allows integrating the complex information. SPADE analysis is composed of several steps: A density-dependent down-sampling of the original data is clustered. Adjacent clusters are drawn in alternating colors. Minimum spanning tree that connects the cell clusters is generated and color-coded. Nodes are colored by the number of cells in each cluster (7-547 cells). This allows visualization of the changes in the various immune populations. Cluster of CD8, CD4, NK B cell and monocytes are indicated.
CyTOF mass cytometry: Single-cell suspensions of cells from the blood/bone marrow/spleen/lymph nodes of the treated mice are stained with monoclonal or polyclonal antibodies, conjugated to metal probes. […]

Regarding `C[N+]1([O-])CCN(C2=Nc3cc(Cl)ccc3Nc3ccccc32)CC1` [CNO, clozapine-N-oxide], the “abundance of B-cell subsets” value in assay [1] (blood and spleen) is “decreased in abundance”. In assay [1] (blood), the “CD1d levels on APC subsets (granulocytes, NK cells, monocyte/macrophages)” value is reported as “reduced”. Besides, in assay [1] (spleen), the “CD25, CD69 and CD206 expression” value is reported as “upregulation”; the “CD80 and CD86 expression” value was “Upregulation”; the CD1d expression entry is reported as “downregulation”. Besides, in assay [2], the “levels of CD69” value is on record as “No change was detected”.
